According to patent US12595269B2, “Morpholine-like monoamine releasers” (Solvonis Therapeutics Ireland Holdings Limited, priority 2022, dated 2026):

Columns and labels:
[1] = biological target: T1, DAT (dopamine release) (Rattus norvegicus, UniProt P23977); test: Dopamine release filtration assay in rat striatal synaptosomes; format: cell-based; details: % of release by 50 μM MDMA, read-out: DAT release pEC50 (converted)
T1 construct: added to the tube containing the crude striatal synaptosomes preparation; from tissue; host or cells: rat striatum, crude synaptosomes
Experimental: Methods and Procedure—Release: The potency of the disclosed compounds for stimulating dopamine (DA) release was measured by an endpoint release filtration assay in a 96-well format using rat synaptosomes, essentially as described by Sandtner et al., Mol. Pharmacol., 2016; 89(1):165-75, and Baumann et al., Neuropsychopharmacol., 2013; 38:552-562, with some variations.
One male rat was sacrificed and striatum/cortex regions were dissected over ice. The striatum portions were weighed and put in a glass tube for homogenization, containing ice-cold 0.32 M sucrose (dilution 1:24 w/v), while the frontal cortex tissue was diluted in ice-cold 0.32 M sucrose, 1:20 w/v. Tissues were homogenized and centrifuged for 10 mins at 1000×g. The two supernatants from striatum and cortex (crude synaptosomes) were retained on ice until use.
Test compounds were then serially diluted 1:4 in neat DMSO as concentration-response curves (CRC) of 11 points. […]
^3H-Dopamine was added to the tube containing the crude striatal synaptosomes preparation, diluted 1:20 (v/v) in complete Krebs-phosphate buffer, and was incubated at RT and gently mixed for 60 minutes. […] The retained radioactivity was counted in a scintillation counter after the addition of 50 μL/well Microscint-20.
The raw data (cpm) from residual radioactivity onto the filter were elaborated for the determination of pEC50/EC50 values. Specifically, the compound effect was expressed as the percent of maximal release obtained with 50 μM MDMA (100% release) in comparison to vehicle (0.5% DMSO, 0% release). […] In each plate, for both 0% and 100% of release, the signal window is monitored performing Z′ calculations using raw data of four replicates.

[2] = Apparent permeability (Papp AB) in MDCKII cells; format: in vitro ADME, Canine; details: dog, MDCK; pH 7.4, apical to basolateral, 60 min
Experimental: Methods and Procedure: This study was conducted in compliance with previously described procedures to assure data integrity and adherence to GLP regulations. The experiments described herein were designed to evaluate the apparent permeability (Papp) of test compounds at pH 7.4. Additionally, the MDCKII-MDR1 cell line (Madin-Darby Canine Kidney clone II cell line heterologously expressing the human P-glycoprotein transporter) and mock cell line MDCKII were used to determine whether a compound acted as a P-gp substrate, in the absence and in the presence of the potent P-gp inhibitor. Test control items (digoxin, metoprolol, and atenolol) and control P-gp inhibitor (GF120918) stock solution were prepared in DMSO. Bidirectional assays (Apical to Basolateral [AB] and Basolateral to Apical [BA]) were run, in both the absence and presence of P-gp inhibitor GF120918 in MDCKII-MDR1 and mock cell line MDCKII, using as transport buffer HBSSH at a pH of 7.4 (n=3).
Compounds were tested at a single concentration (i.e. at 3 or 10 μM) at one time point (i.e. 60 min). Alternative concentrations or time-points may also be investigated. As reference compounds, digoxin (P-gp substrate), atenolol (low permeable compound) and metoprolol (high permeable compound) were included at a single concentration (e.g., 10 or 25 μM) and at single time point (e.g., 60 min). Digoxin transport was evaluated in two directions (apical-to-basolateral [AB] and basolateral-to-apical [BA]) in the absence and presence of GF120918 or in mock cells, MDCKII (n=3). Atenolol and metoprolol were only tested in the AB direction in absence of GF120918 or in mock cells, MDCKII (n=3). The integrity of the cell monolayer was evaluated after the permeability experiment using the paracellular permeability marker Lucifer yellow (LY) in the apical to basolateral direction in each well.
MDCKII or MDCKII-MDRI cells cultivated using DMEM (high glucose, GlutaMAX™ supplemented with pyruvate, 10% FBS HI and Pen/Strep) and seeded onto microporous PET (Polyethylene Terephthalate) membranes in HTS 96-Multiwell Insert plates at density of ˜175,000-245,000 cells/cm^2 (25000-35000 cells/well; 50 μL/well) in DMEM medium and incubated for 3-4 days at 37° C.-5% CO2. Medium was changed a day before the experiment.
Stock solutions of test items were prepared in DMSO at a concentration of 5 or 10 mM and stored at −20° C. until use. The potent P-gp inhibitor, GF120918 (stock solution 10 mM) and the reference controls digoxin, atenolol, metoprolol (stock solutions 3 or 10 mM) were prepared in DMSO and stored at −20° C. until use.
Donor working solutions of test items and reference controls will be prepared at a concentration of 10 or 25 μM, diluting the stock solutions in HBSSH. Receiver working solutions contained transport buffer only. […]
MDCKII and MDCKII-MDR1 cells were preincubated (37° C., 15 to 30 minutes) in receiver working solutions containing transport buffer on apical (A) and basolateral (B) sides. Following pre-incubation, test items and control items (digoxin) transport were measured in two directions (apical to basolateral [AB]) and basolateral to apical [BA]), and these directions were performed in triplicate sets of wells, in both the absence and presence of […] GF120918 or mock MDCKII cells. […] Transport of permeability reference controls, atenolol and metoprolol, were measured in one direction (apical to basolateral [AB]) (n=3). […]

T1 sequence (P23977 whole entry): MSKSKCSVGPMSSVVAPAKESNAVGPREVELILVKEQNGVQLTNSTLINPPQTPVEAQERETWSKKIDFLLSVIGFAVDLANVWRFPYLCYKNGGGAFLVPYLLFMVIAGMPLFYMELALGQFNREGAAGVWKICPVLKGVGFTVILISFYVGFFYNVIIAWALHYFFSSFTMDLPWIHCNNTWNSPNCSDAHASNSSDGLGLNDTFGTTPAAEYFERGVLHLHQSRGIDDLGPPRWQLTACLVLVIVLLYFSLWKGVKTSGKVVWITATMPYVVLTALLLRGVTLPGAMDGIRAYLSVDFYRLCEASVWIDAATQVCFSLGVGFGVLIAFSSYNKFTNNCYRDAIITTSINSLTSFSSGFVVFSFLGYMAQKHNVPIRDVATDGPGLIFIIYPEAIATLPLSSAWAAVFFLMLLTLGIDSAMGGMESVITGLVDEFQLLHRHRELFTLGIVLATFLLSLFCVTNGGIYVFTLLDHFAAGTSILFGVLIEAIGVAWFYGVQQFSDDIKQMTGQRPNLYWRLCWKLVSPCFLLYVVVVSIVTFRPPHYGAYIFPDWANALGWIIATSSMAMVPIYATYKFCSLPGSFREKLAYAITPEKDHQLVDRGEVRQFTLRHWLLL

Row | Structure (SMILES) | EC50 [1] [µM] | Papp A→B at 60 min [2] [nm/s]
1 | Clc1ccc([C@]23CN[C@H](CO2)C3)cc1Cl (single isomer, unassigned) [516A] | 1.1 | 158
2 | Clc1ccc([C@@]23CN[C@@H](CO2)C3)cc1Cl (single isomer, unassigned) [518A] | 0.0331 | 173
3 | Clc1ccc(C23CNC(CO2)C3)cc1Cl (stereo not shown) [522A, 1-(3,4-dichlorophenyl)-2-oxa-5-azabicyclo[2.2.1]heptane] | 0.0617 | 94.5
4 | CNC(C)Cc1ccc2c(c1)OCO2 (stereo not shown) [MDMA, reference compound] | – | 140
